Data published in patent publication US6004960A, “Pyridazinones as inhibitors of cyclooxygenase-2” (Merck Frosst Canada, Inc., priority 1998, dated 1999).

Columns and labels:
COX-1 [1] = target: T1, COX-1 (Homo sapiens, UniProt P23219); assay: Assay of COX-1 activity from U937 cell microsomes; type: biochemical; design: Assay of COX-1 Activity from U937 cell microsomes; endogenous in cells; host or cells: U937 cells, 100,000×g microsomal pellet; details: PGE2, read-out: COX-1 (IC50 μM) U-937
Procedure: Assay of COX-1 Activity from U937 cell microsomes
U 937 cells are pelleted by centrifugation at 500×g for 5 min and washed once with phosphate-buffered saline and repelleted. […] The cell suspension is sonicated 4 times for 10 sec and is centrifuged at 10,000×g for 10 min at 4° C. The supernatant is centrifuged at 100,000×g for 1 hr at 4° C. The 100,000×g microsomal pellet is resuspended in 0.1 M Tris-HCl, pH 7.4, 10 mM EDTA to approximately 7 mg protein/ml and stored at -80° C.
Microsomal preparations are thawed immediately prior to use, subjected to a brief sonication, and then diluted to a protein concentration of 125 μg/ml in 0.1 M Tris-HCl buffer, pH 7.4 containing 10 mM EDTA, 0.5 mM phenol, 1 mM reduced glutathione and 1 μM hematin. Assays are performed in duplicate in a final volume of 250 pl. Initially, 5 µl of DMSO vehicle or drug in DMSO are added to 20 μl of 0.1 M Tris-HCl buffer, pH 7.4 containing 10 mM EDTA in wells of a 96-deepwell polypropylene titre plate. 200 μl of the microsomal preparation are then added and pre-incubated for 15 min at room temperature before addition of 25 μl of […] in 0.1 M Tris-HCl and 10 mM EDTA, pH 7.4. Samples are incubated for 40 min at room temperature and the reaction is stopped by the addition of 25 pl of 1 N HCl. Samples are neutralized with 25 μl of 1 N NaOH prior to quantitation of PGE2 content by radioimmunoassay (Dupont-NEN or Amersham assay kits). Cyclooxygenase activity is defined as the difference between PGE2 levels in samples incubated in the presence of arachidonic acid and ethanol vehicle.
In the assay, inhibition is determined by measuring the amount of prostaglandin E2 (PGE2) synthesized in the presence of arachidonic acid, cyclooxygenase-I or cyclooxygenase-2 and a putative inhibitor.

COX-1 [2] = target: T1, COX-1; assay: Human whole blood assay, COX-1 (clotting-induced TxB2 production); type: cell-based; design: platelets in whole blood contain a large amount of the COX-1 enzyme; from tissue; host or cells: fresh human whole blood (platelets), allowed to clot; details: clotting-induced TxB2, 1 hour at 37° C, read-out: COX-1 (IC50 μM) HWB
Procedure: Human whole blood provides a protein and cell-rich milieu appropriate for the study of biochemical efficacy of anti-inflammatory compounds such as selective COX-2 inhibitors. […] This is consistent with the observation that COX-2 inhibitors have no effect on PGE2 production in normal blood. These inhibitors are active only after incubation of human whole blood with LPS, which induces COX-2. This assay can be used to evaluate the inhibitory effect of selective COX-2 inhibitors on PGE2 production. As well, platelets in whole blood contain a large amount of the COX-1 enzyme. Immediately following blood clotting, platelets are activated through a thrombin-mediated mechanism. This reaction results in the production of thromboxane B2 (TxB2) via activation of COX-1. Thus, the effect of test compounds on TxB2 levels following blood clotting can be examined and used as an index for COX-1 activity. Therefore, the degree of selectivity by the test compound can be determined by measuring the levels of PGE2 after LPS induction (COX-2) and […] following blood clotting (COX-1) in the same assay.
B. COX-1 (Clotting-induced TxB2 production)
Fresh blood is collected into vacutainers containing no anticoagulants. […] The tubes are vortexed and incubated at 37° C. for 1 hour to allow blood to clot. At the end of incubation, serum is obtained by centrifugation (12,000×g for 5 min.). A 100 μL aliquot of serum is mixed with 400 μL of methanol for protein precipitation. The supernatant is obtained and is assayed for T×B2 using a enzyme immunoassay kit (Cayman, #519031) according to the manufacturer's instruction.

T1 sequence (P23219 24-599): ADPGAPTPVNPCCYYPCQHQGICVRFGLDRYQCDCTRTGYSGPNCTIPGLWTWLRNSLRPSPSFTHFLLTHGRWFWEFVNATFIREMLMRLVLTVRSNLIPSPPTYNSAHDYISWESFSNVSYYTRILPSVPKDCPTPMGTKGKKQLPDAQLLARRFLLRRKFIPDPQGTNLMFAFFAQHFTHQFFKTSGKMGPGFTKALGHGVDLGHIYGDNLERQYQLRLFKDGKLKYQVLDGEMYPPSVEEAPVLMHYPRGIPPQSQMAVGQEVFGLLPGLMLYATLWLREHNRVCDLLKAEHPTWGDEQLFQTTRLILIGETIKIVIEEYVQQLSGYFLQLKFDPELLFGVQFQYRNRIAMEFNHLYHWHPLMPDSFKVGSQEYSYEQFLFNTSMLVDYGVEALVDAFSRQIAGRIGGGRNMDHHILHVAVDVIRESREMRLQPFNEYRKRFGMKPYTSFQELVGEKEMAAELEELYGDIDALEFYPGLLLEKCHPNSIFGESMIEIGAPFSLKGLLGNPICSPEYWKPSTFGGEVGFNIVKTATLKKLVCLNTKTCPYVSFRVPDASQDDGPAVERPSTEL

IC50 (COX-1 [1]): > 10 µM
IC50 (COX-1 [2]): 56 µM
SMILES: CS(=O)(=O)c1ccc(-c2cnn(Cc3ccccc3)c(=O)c2-c2cccnc2)cc1 [Example 28, 2-Benzyl-5-(4-methylsulfonyl)phenyl-4-(3-pyridyl)-2H-pyridazin-3-one]
